Laboratory results published in paper PMC4783402 (Frontiers in Microbiology, 2016).

Assays:
in vitro = conditions: human
L. pneumophila biofilm [1] = format: cell-based, Legionella pneumophila 155; conditions: 0.1 mM polyamino-phenolic ligand, 3-day-old biofilm treated 3 days, tap water, 37°C
[2] = test system: planktonic L. pneumophila; format: cell-based, Legionella pneumophila; conditions: 0.1 mM polyamino-phenolic ligand, 24 h, PBS, 37°C
L. pneumophila biofilm [3] = format: cell-based, Legionella pneumophila 155; conditions: 0.1 mM polyamino-phenolic ligand added at inoculum, 3-day contact time
planktonic K. pneumoniae = format: cell-based, Klebsiella pneumoniae
planktonic A. hydrophila = format: cell-based, Aeromonas hydrophila
planktonic E. coli = format: cell-based, Escherichia coli
[4] = test system: L. pneumophila/E. coli biofilm; format: cell-based, Legionella pneumophila 155 / Escherichia coli; conditions: 0.1 mM polyamino-phenolic ligand added at inoculum, 3-day contact time
[5] = test system: L. pneumophila/E. coli biofilm; format: cell-based, Legionella pneumophila 155 / Escherichia coli; conditions: 0.1 mM polyamino-phenolic ligand, 3-day-old biofilm treated 3 days
[6] = test system: L. pneumophila/A. hydrophila biofilm; format: cell-based, Legionella pneumophila 155 / Aeromonas hydrophila; conditions: 0.1 mM polyamino-phenolic ligand added at inoculum, 3-day contact time
planktonic P. aeruginosa = format: cell-based, Pseudomonas aeruginosa
[7] = test system: L. pneumophila/K. pneumoniae biofilm; format: cell-based, Legionella pneumophila 155 / Klebsiella pneumoniae; conditions: 0.1 mM polyamino-phenolic ligand added at inoculum, 3-day contact time
[8] = test system: L. pneumophila/A. hydrophila biofilm; format: cell-based, Legionella pneumophila 155 / Aeromonas hydrophila; conditions: 0.1 mM polyamino-phenolic ligand, 3-day-old biofilm treated 3 days
[9] = test system: L. pneumophila/K. pneumonia biofilm; format: cell-based, Legionella pneumophila 155 / Klebsiella pneumoniae; conditions: 0.1 mM polyamino-phenolic ligand, 3-day-old biofilm treated 3 days
[10] = test system: five-species biofilm (L. pneumophila/P. aeruginosa/A. hydrophila/E. coli/K. pneumoniae); format: cell-based; conditions: 0.1 mM polyamino-phenolic ligand added at inoculum, 3-day contact time
[11] = test system: L. pneumophila/P. aeruginosa biofilm; format: cell-based, Legionella pneumophila 155 / Pseudomonas aeruginosa; conditions: 0.1 mM polyamino-phenolic ligand added at inoculum, 3-day contact time

| SMILES | viability (in vitro) [%] | biofilm reduction (degradation) (L. pneumophila biofilm [1]) [%] | effect on number of viable planktonic cells [2] | effect on number of viable planktonic cells (planktonic K. pneumoniae) | effect on number of viable planktonic cells (planktonic A. hydrophila) | effect on number of viable planktonic cells (planktonic E. coli) | effect on number of viable planktonic cells (planktonic P. aeruginosa) | further results |
| --- | --- | --- | --- | --- | --- | --- | --- | --- |
| NCCN(CCN)Cc1cccc(-c2cccc(CN(CCN)CCN)c2O)c1O [Bfden, 3,3′-bis(N,N-bis(2-aminoethyl)aminomethyl)-2,2′-dihydroxybiphenyl] | 97 | – | – | – | – | – | – | – |
| NCCNCCNCc1cc(-c2ccc(O)c(CNCCNCCN)c2)ccc1O [Bisom, 3,3′-bis(N-(N-(2-aminoethyl)-2-aminoethyl)aminomethyl)-4,4′-dihydroxybiphenyl] | 72 | – | – | – | – | – | – | – |
| NCCN(CCN)Cc1cc(-c2ccc(O)c(CN(CCN)CCN)c2)ccc1O [Dimo, 3,3′-bis(N,N-bis(2-aminoethyl)aminomethyl)-4,4′-dihydroxybiphenyl] | 58 | 27 | – | – | – | – | – | – |
| Oc1c2cccc1CNCCN(CCNCCCNCCNCCCNCCN1CCNCc3cccc(c3O)CNCC1)CCNC2 [Double Macrophen, 1,16-bis(3,6,9-triaza-15-hydroxybicyclo(9.3.1)pentadeca-11,13,1^15-trien-6-yl)-3,7,10,14-tetraazahexadecane] | 95 | 32 | did not reduce the number of viable cells | did not reduce the number of viable cells | did not reduce the number of viable cells | did not reduce the number of viable cells | did not reduce the number of viable cells | biofilm formation inhibition (L. pneumophila biofilm [3]): 48%; biofilm formation inhibition [4]: 42%; biofilm reduction (degradation) [5]: 39%; biofilm formation inhibition [6]: 34% |
| NCCN1CCNCc2cccc(c2O)CNCC1 [Macrophen, 2-(3,6,9-triaza-15-hydroxybicyclo(9.3.1)pentadeca-11,13,1^15-trien-6-yl)ethylamine] | – | 27 | did not reduce the number of viable cells | did not reduce the number of viable cells | did not reduce the number of viable cells | did not reduce the number of viable cells | did not reduce the number of viable cells | biofilm formation inhibition [7]: 24%; biofilm reduction (degradation) [8]: 33%; biofilm reduction (degradation) [9]: 33%; biofilm formation inhibition [10]: 27%; biofilm formation inhibition [11]: 26% |
